Columns and labels:
Assay in all cases: radiometric filter-binding kinase assay, Kinase HotSpot
Conditions in all cases: compound 0.5 µM; ATP 10 µM
CSNK1G2 (human) = CSNK1G2 (human) (UniProt P78368)
PRKCD (human) = PRKCD (human) (UniProt Q05655)
EPHA5 (human) = EPHA5 (human) (UniProt P54756)
MKNK2 (human) = MKNK2 (human) (UniProt Q9HBH9)
PBK (human) = PBK (human) (UniProt Q96KB5)
MELK (human) = MELK (human) (UniProt Q14680)
ROCK1 (human) = ROCK1 (human) (UniProt Q13464)
CDK6 CCND3 (human) = CDK6 CCND3 (human) (UniProt P30281+Q00534)
PKN1 (human) = PKN1 (human) (UniProt Q16512)
MARK3 (human) = MARK3 (human) (UniProt P27448)
[1] = molecular target: TYK2 JH1 catalytic (human) (UniProt P29597)
Chain of TYK2 JH1 catalytic (human) (P29597 whole entry, looked up): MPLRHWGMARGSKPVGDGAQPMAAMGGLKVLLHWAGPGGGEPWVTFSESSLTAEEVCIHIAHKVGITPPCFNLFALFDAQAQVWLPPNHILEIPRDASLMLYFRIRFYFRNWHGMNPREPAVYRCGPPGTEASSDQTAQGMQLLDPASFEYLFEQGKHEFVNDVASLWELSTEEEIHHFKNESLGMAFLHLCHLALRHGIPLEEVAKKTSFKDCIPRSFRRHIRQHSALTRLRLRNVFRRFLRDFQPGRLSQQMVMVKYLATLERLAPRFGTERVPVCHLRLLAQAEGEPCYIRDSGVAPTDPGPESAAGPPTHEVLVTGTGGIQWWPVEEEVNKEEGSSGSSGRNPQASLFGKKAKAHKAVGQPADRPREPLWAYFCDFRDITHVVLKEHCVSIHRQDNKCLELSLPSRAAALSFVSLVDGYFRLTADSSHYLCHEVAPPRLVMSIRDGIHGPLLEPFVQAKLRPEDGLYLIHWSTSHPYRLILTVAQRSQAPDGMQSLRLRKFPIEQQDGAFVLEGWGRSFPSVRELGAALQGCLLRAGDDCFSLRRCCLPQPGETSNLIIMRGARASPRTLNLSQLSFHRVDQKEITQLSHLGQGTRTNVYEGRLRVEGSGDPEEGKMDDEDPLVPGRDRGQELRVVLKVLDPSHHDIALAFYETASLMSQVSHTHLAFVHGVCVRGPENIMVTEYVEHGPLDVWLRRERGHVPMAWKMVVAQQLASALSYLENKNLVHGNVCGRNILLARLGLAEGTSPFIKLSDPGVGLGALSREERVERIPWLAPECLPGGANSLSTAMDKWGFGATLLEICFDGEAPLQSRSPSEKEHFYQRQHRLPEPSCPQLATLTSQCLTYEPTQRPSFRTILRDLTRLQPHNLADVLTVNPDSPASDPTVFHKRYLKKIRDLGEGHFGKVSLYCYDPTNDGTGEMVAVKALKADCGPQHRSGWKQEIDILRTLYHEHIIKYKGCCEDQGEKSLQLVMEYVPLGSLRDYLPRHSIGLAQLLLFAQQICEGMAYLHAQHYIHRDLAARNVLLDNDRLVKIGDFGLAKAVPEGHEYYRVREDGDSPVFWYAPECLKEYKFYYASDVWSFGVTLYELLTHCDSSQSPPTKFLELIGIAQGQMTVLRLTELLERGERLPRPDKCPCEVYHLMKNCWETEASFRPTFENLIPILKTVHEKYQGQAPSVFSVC

[2] = system: MKNK1 (human), Q9BUB5 [T385D; 165-205 del]
RPS6KA1 KD1 KD2 (human) = RPS6KA1 KD1 KD2 (human) (UniProt Q15418)
STK17A (human) = STK17A (human) (UniProt Q9UEE5)
Chain of STK17A (human) (Q9UEE5 whole entry, looked up): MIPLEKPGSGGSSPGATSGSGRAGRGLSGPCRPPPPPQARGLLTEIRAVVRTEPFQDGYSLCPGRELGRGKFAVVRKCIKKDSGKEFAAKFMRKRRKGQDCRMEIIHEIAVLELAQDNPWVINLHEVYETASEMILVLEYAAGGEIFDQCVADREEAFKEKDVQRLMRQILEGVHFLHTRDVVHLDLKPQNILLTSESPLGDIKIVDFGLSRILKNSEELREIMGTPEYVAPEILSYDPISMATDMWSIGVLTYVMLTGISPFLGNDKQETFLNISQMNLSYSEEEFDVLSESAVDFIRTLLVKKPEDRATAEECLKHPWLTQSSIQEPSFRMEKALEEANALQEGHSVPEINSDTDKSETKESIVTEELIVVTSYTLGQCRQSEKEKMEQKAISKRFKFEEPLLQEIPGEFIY

MAP3K8 (human) = MAP3K8 (human) (UniProt P41279)
MATK (human) = MATK (human) (UniProt P42679)
Chain of MATK (human) (P42679 whole entry, looked up): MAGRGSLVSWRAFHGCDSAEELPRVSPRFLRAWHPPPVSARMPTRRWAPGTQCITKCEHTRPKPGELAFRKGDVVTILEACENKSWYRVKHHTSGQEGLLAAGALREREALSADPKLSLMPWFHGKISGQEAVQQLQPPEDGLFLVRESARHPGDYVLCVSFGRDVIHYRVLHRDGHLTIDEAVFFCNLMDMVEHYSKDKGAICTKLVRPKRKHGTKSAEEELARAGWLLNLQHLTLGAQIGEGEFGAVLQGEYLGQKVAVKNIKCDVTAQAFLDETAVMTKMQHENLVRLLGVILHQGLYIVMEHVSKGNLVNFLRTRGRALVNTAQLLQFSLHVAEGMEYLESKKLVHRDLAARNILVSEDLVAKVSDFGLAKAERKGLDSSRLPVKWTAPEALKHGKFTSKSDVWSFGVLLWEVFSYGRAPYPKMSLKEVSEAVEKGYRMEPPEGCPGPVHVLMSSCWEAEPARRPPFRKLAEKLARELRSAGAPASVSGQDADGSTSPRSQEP

STK11 (human) = STK11 (human) (UniProt Q15831)
STK10 (human) = STK10 (human) (UniProt O94804)
MET (human) = MET (human) (UniProt P08581)
BMX (human) = BMX (human) (UniProt P51813)
Chain of BMX (human) (P51813 whole entry, looked up): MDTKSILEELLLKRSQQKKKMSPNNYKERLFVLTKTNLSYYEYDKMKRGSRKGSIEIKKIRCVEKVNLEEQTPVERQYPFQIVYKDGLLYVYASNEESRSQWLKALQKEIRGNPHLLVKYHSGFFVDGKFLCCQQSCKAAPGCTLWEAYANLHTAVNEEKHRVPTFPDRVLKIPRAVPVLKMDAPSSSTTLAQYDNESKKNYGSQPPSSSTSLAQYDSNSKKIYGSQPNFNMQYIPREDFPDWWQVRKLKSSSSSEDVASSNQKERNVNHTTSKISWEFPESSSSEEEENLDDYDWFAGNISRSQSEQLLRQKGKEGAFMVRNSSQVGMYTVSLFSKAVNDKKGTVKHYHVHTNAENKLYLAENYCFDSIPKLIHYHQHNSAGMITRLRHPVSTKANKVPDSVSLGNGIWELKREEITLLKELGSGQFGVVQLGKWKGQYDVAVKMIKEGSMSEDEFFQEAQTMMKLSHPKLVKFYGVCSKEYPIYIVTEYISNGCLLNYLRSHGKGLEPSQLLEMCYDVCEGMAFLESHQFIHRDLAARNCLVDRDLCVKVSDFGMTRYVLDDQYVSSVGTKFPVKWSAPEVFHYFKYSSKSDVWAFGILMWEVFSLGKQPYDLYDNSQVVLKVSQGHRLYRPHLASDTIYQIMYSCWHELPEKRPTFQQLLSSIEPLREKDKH

PRKX (human) = PRKX (human) (UniProt P51817)
MAP4K4 (human) = MAP4K4 (human) (UniProt O95819)
PIM1 (human) = PIM1 (human) (UniProt P11309)
RPS6KA2 KD1 KD2 (human) = RPS6KA2 KD1 KD2 (human) (UniProt Q15349)
MST4 (human) = MST4 (human) (UniProt Q9P289)
HCK (human) = HCK (human) (UniProt P08631)
MAPK3 (human) = MAPK3 (human) (UniProt P27361)
AKT2 (human) = AKT2 (human) (UniProt P31751)
VRK1 (human) = VRK1 (human) (UniProt Q99986)
TSSK2 (human) = TSSK2 (human) (UniProt Q96PF2)
CHEK1 (human) = CHEK1 (human) (UniProt O14757)
PNCK (human) = PNCK (human) (UniProt Q6P2M8)
PRKCH (human) = PRKCH (human) (UniProt P24723)
CDK5 CDK5R1 p25 (human) = CDK5 CDK5R1 p25 (human) (UniProt Q00535+Q15078)
Chain of CDK5 CDK5R1 p25 (human) (Q00535 whole entry, looked up): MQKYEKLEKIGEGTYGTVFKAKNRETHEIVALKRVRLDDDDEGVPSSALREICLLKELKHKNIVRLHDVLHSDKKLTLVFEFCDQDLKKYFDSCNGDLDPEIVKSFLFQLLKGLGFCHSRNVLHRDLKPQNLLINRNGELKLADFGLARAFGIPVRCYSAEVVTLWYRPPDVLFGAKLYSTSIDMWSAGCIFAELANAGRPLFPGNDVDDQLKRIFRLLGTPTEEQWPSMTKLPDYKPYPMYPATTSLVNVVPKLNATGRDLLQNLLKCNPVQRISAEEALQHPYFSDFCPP
Chain of CDK5 CDK5R1 p25 (human) (Q15078 whole entry, looked up): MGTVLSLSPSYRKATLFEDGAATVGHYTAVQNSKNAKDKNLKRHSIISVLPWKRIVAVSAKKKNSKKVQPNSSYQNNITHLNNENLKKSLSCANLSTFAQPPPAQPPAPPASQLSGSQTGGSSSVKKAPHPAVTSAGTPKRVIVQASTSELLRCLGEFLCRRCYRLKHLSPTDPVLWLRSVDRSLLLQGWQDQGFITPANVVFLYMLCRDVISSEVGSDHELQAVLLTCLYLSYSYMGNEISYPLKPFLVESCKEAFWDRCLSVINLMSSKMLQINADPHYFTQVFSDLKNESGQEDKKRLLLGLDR

HIPK3 (human) = HIPK3 (human) (UniProt Q9H422)
NEK11 (human) = NEK11 (human) (UniProt Q8NG66)
NUAK2 (human) = NUAK2 (human) (UniProt Q9H093)
FYN (human) = FYN (human) (UniProt P06241)
Chain of FYN (human) (P06241 whole entry, looked up): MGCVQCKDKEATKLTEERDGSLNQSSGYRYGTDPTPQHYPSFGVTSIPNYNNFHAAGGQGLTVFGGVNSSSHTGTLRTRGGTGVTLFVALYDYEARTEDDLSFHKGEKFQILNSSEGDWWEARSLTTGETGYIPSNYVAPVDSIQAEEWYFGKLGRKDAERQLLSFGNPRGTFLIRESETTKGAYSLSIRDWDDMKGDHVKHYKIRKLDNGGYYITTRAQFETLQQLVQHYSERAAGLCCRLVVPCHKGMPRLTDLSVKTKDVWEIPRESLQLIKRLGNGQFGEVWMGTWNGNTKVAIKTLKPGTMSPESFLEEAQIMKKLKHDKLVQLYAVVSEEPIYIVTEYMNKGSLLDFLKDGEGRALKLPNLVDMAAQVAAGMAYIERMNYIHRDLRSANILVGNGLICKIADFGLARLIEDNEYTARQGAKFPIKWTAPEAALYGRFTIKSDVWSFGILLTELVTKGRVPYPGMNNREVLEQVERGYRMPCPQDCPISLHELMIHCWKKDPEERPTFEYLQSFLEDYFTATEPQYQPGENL

EPHB3 (human) = EPHB3 (human) (UniProt P54753)
DYRK2 (human) = DYRK2 (human) (UniProt Q92630)
EPHA7 (human) = EPHA7 (human) (UniProt Q15375)
MARK4 (human) = MARK4 (human) (UniProt Q96L34)

Chain of CSNK1G2 (human) (P78368 whole entry, looked up): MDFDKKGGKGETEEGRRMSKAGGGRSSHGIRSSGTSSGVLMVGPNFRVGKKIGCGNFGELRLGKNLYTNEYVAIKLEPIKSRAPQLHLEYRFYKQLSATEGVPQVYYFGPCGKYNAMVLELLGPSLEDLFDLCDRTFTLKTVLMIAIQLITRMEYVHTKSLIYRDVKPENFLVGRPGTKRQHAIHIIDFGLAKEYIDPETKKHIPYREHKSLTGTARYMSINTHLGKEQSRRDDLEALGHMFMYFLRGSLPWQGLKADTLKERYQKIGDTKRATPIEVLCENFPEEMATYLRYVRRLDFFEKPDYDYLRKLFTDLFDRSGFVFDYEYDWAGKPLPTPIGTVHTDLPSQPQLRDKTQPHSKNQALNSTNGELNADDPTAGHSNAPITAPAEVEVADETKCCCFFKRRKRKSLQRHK
Chain of MKNK2 (human) (Q9HBH9 whole entry, looked up): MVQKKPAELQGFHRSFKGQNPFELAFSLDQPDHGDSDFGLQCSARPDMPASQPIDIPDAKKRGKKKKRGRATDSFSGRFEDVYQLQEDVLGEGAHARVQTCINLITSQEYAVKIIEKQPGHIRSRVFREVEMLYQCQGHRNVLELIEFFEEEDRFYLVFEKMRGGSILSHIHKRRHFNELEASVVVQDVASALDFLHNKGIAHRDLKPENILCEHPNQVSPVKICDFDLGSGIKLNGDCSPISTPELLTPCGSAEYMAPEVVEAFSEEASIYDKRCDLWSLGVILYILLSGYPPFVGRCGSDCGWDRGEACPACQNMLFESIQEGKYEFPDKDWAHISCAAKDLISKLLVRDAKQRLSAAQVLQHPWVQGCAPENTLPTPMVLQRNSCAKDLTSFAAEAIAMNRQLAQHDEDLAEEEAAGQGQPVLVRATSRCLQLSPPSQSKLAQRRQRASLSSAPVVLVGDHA

Question: Which results are given for `COc1ccc(S(=O)(=O)N(CCO)c2ccccc2CN(C)C/C=C/c2ccc(Cl)cc2)cc1`?
Answer: residual activity (CSNK1G2 (human)): 103%; residual activity (PRKCD (human)): 94.3%; residual activity (EPHA5 (human)): 98.1%; residual activity (MKNK2 (human)): 102%; residual activity (PBK (human)): 95.3%; residual activity (MELK (human)): 99.4%; residual activity (ROCK1 (human)): 99.7%; residual activity (CDK6 CCND3 (human)): 102%; residual activity (PKN1 (human)): 110%; residual activity (MARK3 (human)): 102%; residual activity [1]: 110%; residual activity [2]: 103%; residual activity (RPS6KA1 KD1 KD2 (human)): 108%; residual activity (STK17A (human)): 102%; residual activity (MAP3K8 (human)): 96.3%; residual activity (MATK (human)): 101%; residual activity (STK11 (human)): 97.7%; residual activity (STK10 (human)): 99.4%; residual activity (MET (human)): 98.2%; residual activity (BMX (human)): 101%; residual activity (PRKX (human)): 104%; residual activity (MAP4K4 (human)): 97.6%; residual activity (PIM1 (human)): 104%; residual activity (RPS6KA2 KD1 KD2 (human)): 99.2%; residual activity (MST4 (human)): 105%; residual activity (HCK (human)): 97.8%; residual activity (MAPK3 (human)): 95.1%; residual activity (AKT2 (human)): 106%; residual activity (VRK1 (human)): 96.4%; residual activity (TSSK2 (human)): 107%; residual activity (CHEK1 (human)): 93.5%; residual activity (PNCK (human)): 99.8%; residual activity (PRKCH (human)): 95.9%; residual activity (CDK5 CDK5R1 p25 (human)): 97.7%; residual activity (HIPK3 (human)): 104%; residual activity (NEK11 (human)): 105%; residual activity (NUAK2 (human)): 113%; residual activity (FYN (human)): 103%; residual activity (EPHB3 (human)): 92.8%; residual activity (DYRK2 (human)): 87.5%; residual activity (EPHA7 (human)): 98.9%; residual activity (MARK4 (human)): 102%

Question: What does the source list for `CC(C)(C)c1cc(C=C(C#N)C#N)cc(Br)c1O`?
Answer: residual activity (CSNK1G2 (human)): 100%; residual activity (PRKCD (human)): 83%; residual activity (EPHA5 (human)): 106%; residual activity (MKNK2 (human)): 100%; residual activity (PBK (human)): 102%; residual activity (MELK (human)): 91.6%; residual activity (ROCK1 (human)): 82.9%; residual activity (CDK6 CCND3 (human)): 89.3%; residual activity (PKN1 (human)): 94.5%; residual activity (MARK3 (human)): 105%; residual activity [1]: 61.3%; residual activity [2]: 95.9%; residual activity (RPS6KA1 KD1 KD2 (human)): 104%; residual activity (STK17A (human)): 92.3%; residual activity (MAP3K8 (human)): 104%; residual activity (MATK (human)): 102%; residual activity (STK11 (human)): 85.2%; residual activity (STK10 (human)): 95.4%; residual activity (MET (human)): 111%; residual activity (BMX (human)): 113%; residual activity (PRKX (human)): 102%; residual activity (MAP4K4 (human)): 96.2%; residual activity (PIM1 (human)): 94.7%; residual activity (RPS6KA2 KD1 KD2 (human)): 98.9%; residual activity (MST4 (human)): 95.2%; residual activity (HCK (human)): 66.1%; residual activity (MAPK3 (human)): 105%; residual activity (AKT2 (human)): 97.7%; residual activity (VRK1 (human)): 86.4%; residual activity (TSSK2 (human)): 96.6%; residual activity (CHEK1 (human)): 100%; residual activity (PNCK (human)): 107%; residual activity (PRKCH (human)): 100%; residual activity (CDK5 CDK5R1 p25 (human)): 98.2%; residual activity (HIPK3 (human)): 98.2%; residual activity (NEK11 (human)): 87%; residual activity (NUAK2 (human)): 99.6%; residual activity (FYN (human)): 67.2%; residual activity (EPHB3 (human)): 107%; residual activity (DYRK2 (human)): 104%; residual activity (EPHA7 (human)): 107%; residual activity (MARK4 (human)): 103%
